Here are results for one compound from EP0998912B1, “Use of peracids for hand's disinfection or decontamination” (Bode Chemie GmbH & Co., priority 1998, dated 2000).

In series [1] the test system is residente Hautflora. In words: Surgical hand disinfection test, DGHM guidelines (01.01.1981, Versuch II-2). The class given is in vivo. As to conditions: 5 gew.-%ige solution in demineralised water, hands kept moist 3 Minuten; standard n-Propanol 60 Vol.-% 5 Minuten. From the text: (§1) Mit dieser Lösung wurde der Test zur chirurgischen Händedesinfektion entsprechend den Richtlinien der DGHM (Stand: 01.01.1981, Versuch II-2) durchgeführt. Bei diesem Versuch werden die Hände durch Einreiben 3 Minuten feucht gehalten und gegen ein Standardalkohol (n-Propanol 60 Vol.-%) nach 5 Minuten getestet. Der Test gilt als bestanden, wenn die residente Hautflora durch das Testpräparat gleich oder stärker reduziert wird als durch den Standard.

Series [2] relates to transiente Flora (E. coli). In words: Hygienic hand disinfection test, DGHM guidelines (01.01.1981, Versuch II-1). The class given is in vivo. The following applies: 1 bis 10 gewichts-%-ige purely aqueous solutions, 30 bis 60 Sekunden; compared with requirements for 60 Volumen-% Ethanol or Isopropanol. On the procedure:
Mit der Zubereitung aus Beispiel 2 wurde der Test zur hygienischen Händedesinfektion gemäß den Richtlinien der DGHM (Stand: 01.01.1981, Versuch II-1) durchgeführt. Bei diesem Versuch muß die transiente Flora (E. coli) in 30 Sekunden gleich oder stärker reduziert werden als mit einem Standardalkohol (Isopropanol 60 Vol.-%) in 1 Minute.

The subject of series [3] is Bakterien. In words: Comparative trials on germ reduction by aqueous MMPP solutions. As to conditions: 0,1 bis 10 gewichts-%-ige aqueous solutions, about 30 Sekunden Einwirkzeit.
Series [4] can be described thus: Skin tolerance observed during the hand disinfection and decontamination tests. The series is classed as in vivo.
Text: as §1
Mit einer solchen Lösung, die 4 Gew.-% des Wirkstoffes MMPP enthält, wurde ein Test zur Händedekontamination nach DGHM (Stand: 08.07.1986, Versuch 11) durchgeführt. Bei diesem Verfahren wird die Fähigkeit getestet, die transiente Hautflora zu reduzieren. Der Test gilt als bestanden, wenn das Präparat innerhalb von 30 Sekunden eine E. coli-Kontamination um 3,5 logarithmische Stufen entsprechend 99,9684 % reduziert.
Mit diesen Pasten wurden entsprechend Beispiel 2 die Versuche zur Händedekontamination durchgeführt. Die Hände werden 30 Sekunden mit 1,5 ml der Pasten eingerieben und dann mit Wasser entsprechend der Vorschrift aufgeschäumt.
Mit der Zubereitung aus Beispiel 2 wurde der Test zur hygienischen Händedesinfektion gemäß den Richtlinien der DGHM (Stand: 01.01.1981, Versuch II-1) durchgeführt. […]

For `O=C(O)c1ccccc1C(=O)OO` [MMPP, Magnesium-Monoperoxidophthalat], the “Reduktion der residenten Hautflora gleich oder stärker als durch den Standard” value in series [1] was “erfüllt diese Anforderungen”. In series [2], the “Keimreduktion bei der hygienischen Händedesinfektion” value is on record as “vergleichbare Keimreduktion”. Besides, the Keimreduktion is listed as over 4 log-Stufen in series [3] and > 99,99% in series [3] (equivalent of the log steps). Besides, in series [4] (0,1 bis 10 gewichts-%-ige aqueous solutions, Vergleichsversuche), the Hautverträglichkeit entry is given as “hervorragend hautverträglich”. Moreover, in series [4] (Beispiel 1, 5 gew.-%ige MMPP-Lösung, surgical hand disinfection), the Hautunverträglichkeiten result was “keine Hautunverträglichkeiten”.
